Assay [1] has as its system animals with LPS-induced cognitive impairment. Kind of assay: Animals with LPS-induced cognitive impairment: colitis improvement (colon). The format is in vivo, C57BL/6 male mice. The settings on record: LPS-treated mice, 1×10^9 CFU/mouse or sulfasalazine 50 mg/kg once a day for 5 days. As to the method: To 100 mg of colon tissue, 200 μl of 10 mM potassium phosphate buffer (pH 7.0) containing 0.5% hexadecyl trimethyl ammonium bromide was added and homogenized. Then, the supernatant was obtained by centrifugation for 10 minutes at 4° C. and 10,000 g. A volume of 50 μl of the supernatant was added to 0.95 mk of reaction solution (containing 1.6 mM tetramethyl benzidine and 0.1 mM H2O2), reacted at 37° C., and absorbance was monitored over time at 650 nm.
(§1) Hippocampus, colon, and spleen tissues were homogenized by adding 1 ml of RIPA buffer (Gibco) containing protease inhibitor cocktail and centrifuged at 4° C., 13000 rpm for 15 min to obtain supernatant. Indicators of this supernatant were measured using an ELISA kit (Ebioscience).
(§2) C57BL/6 male mice (5 weeks old, 19-21 g) were divided (6 mice in each group) and acclimatized to the laboratory for 1 week. To induce intestinal and brain diseases, mice were intraperitoneally administered Escherichia coli-derived LPS (10 μg/kg) once daily for 5 days. […] Experimental animals in the normal group were orally administered with a physiological saline solution, which was used to suspend lactic acid bacteria. The day following the conclusion of sample administration, the experimental animals were sacrificed, and samples from the brain hippocampus, colon, and spleen were collected. In the Hippocampus, inflammatory indicators, such as IFN-γ, TNF-α, and IL-10, were measured using ELISA. In the colon, intestinal length and inflammatory indicators, such as IFN-γ, TNF-α, and IL-10, were measured. In the spleen, Th1 cells and Treg cells were measured by FACS (Fluorescence-Activated Cell Sorting).

For assay [2] the test system is unchanged. Kind of assay: Animals with LPS-induced cognitive impairment: improvement effect in spleen. Type of assay: in vivo, C57BL/6 male mice. The conditions noted are these: LPS-treated mice, 1×10^9 CFU/mouse or sulfasalazine 50 mg/kg once a day for 5 days. How it is done: as §1
mRNA was isolated from spleen tissue using the RNA Isolation Kit: RNeasy Mini Kit (QIAGEN), converted to cDNA, and qPCR was performed to measure the expression rates of Tbet, Foxp3, and glyceraldehyde 3-phosphate dehydrogenase (GAPDH). The reaction product was first treated at 95° C. for 30 seconds, followed by 38 cycles of 5 seconds at 95° C. and 30 seconds at 72° C. for analysis.
as §2

Assay [3] has the same test system. Kind of assay: Animals with LPS-induced cognitive impairment: cognitive improvement, hippocampus indicators. The conditions noted are these: LPS-treated mice, 1×10^9 CFU/mouse or sulfasalazine 50 mg/kg once a day for 5 days. The format is in vivo, C57BL/6 male mice. As to the method: as §1
The Y-shaped maze measurement device is shaped like an alphabetical Y with three arms extending from it, each arm being 25 cm long, 14 cm high, 5 cm wide, and positioned at the same angle. At the end of one arm of the Y-shaped maze, the animal was placed with its head facing out and allowed to freely navigate the arm for 8 minutes. The animal's movements were recorded, and reported as arm entries when the animal entered the arm with its hind paw, and the animal's movement was represented by an alternation, which was defined as one alternation when the animal passed through the three arms in succession. The amount of spontaneous alternation behavior was expressed as a percentage between the actual number of alternations and the maximum possible number of alternations (i.e., the total number of […] minus 2).
The experiment was conducted in a box (40×40×40 cm) made so that the outside could not be seen from the inside. Two objects (A, A′) of the same shape and size were fixedly disposed in a box and the mouse was relocated to start from the center of the box. Then, the number of times the mouse made contact with the two objects was recorded for 10 minutes. After 24 hours, one of the two objects was replaced with a new object (A, B). Then, one original object and one new object were prepared, and the animal's exploration time was measured.
as §2

Assay [4] in a line: Antioxidant activity (DPPH, in vitro). The format is biochemical. The conditions noted are these: DPPH 0.2 mM; lactic acid bacteria suspension 1×10^8 CFU/ml; 37° C. 20 min. The procedure, abridged:
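Lactic acid bacteria suspension (1×10^8 CFU/ml) or vitamin C (1 g/ml) was mixed with 0.2 mM ethanolic DPPH and incubated 20 min at 37° C. After centrifugation, supernatant absorbance at 517 nm gave the antioxidant activity.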
In general terms: DPPH is a stable violet radical that fades when it is reduced.

Another assay relates to TNF-α. Nature of the assay: TNF-α expression in LPS-treated macrophages (ELISA). The format is cell-based, C57BL/6 mice. The settings on record: macrophages treated with lactic acid bacteria and LPS for 24 hours. In a few lines:
(§3)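 Peritoneal macrophages were elicited in male C57BL/6 mice (6 weeks) by i.p. 4% thioglycolate and harvested 96 h later. Cells at 0.5×10^6/well were treated with lactic acid bacteria plus LPS for 24 h. Cytokines in the supernatant were quantified by ELISA.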
For orientation: An ELISA detects its analyte on a solid surface through an enzyme-linked reagent.

In the next assay the test system is IL-10. Kind of assay: IL-10 expression in LPS-treated macrophages (ELISA). The conditions noted are these: macrophages treated with lactic acid bacteria and LPS for 24 hours. The format is cell-based, C57BL/6 mice. In a few lines: as §3
The test system of a further assay is BDNF. Nature of the assay: BDNF expression in SH-SY5Y cells. The format is cell-based. The settings on record: LPS 200 ng/ml; lactic acid bacteria 1×10^4 CFU/ml; 24 h. As to the method:
SH-SY5Y cells obtained from the Korean Cell Line Bank were cultured in DMEM medium supplemented with 10% FBS and 1% antibiotics, and dispensed at 2×10^6 cells per well in a 12-well plate. Then, LPS (200 ng/ml) was added to each well along with lactic acid bacteria (1×10^4 CFU/ml) and incubated for 24 h. The cells and supernatants were collected, sonicated and centrifuged, and the amount of BDNF in the supernatant was measured by ELISA kit.

In a further assay the test system is Neuropeptide Y (NPY). Nature of the assay: Neuropeptide Y (NPY) expression in PC12 phaeochromocytoma cells. The format is cell-based. The settings on record: LPS 200 ng/ml; lactic acid bacteria 1×10^4 CFU/ml; 24 hr. How it is done: PC12 cells obtained from the Korean Cell Line Bank were cultured in DMEM medium supplemented with 10% FBS and 1% antibiotics, and dispensed at 1×10^6 cells per well in a 12-well plate. Then, LPS (200 ng/ml) was added to each well along with lactic acid bacteria (1×10^4 CFU/ml) and incubated for 24 hr. The cells and supernatants were collected, sonicated and centrifuged, and the amount of NPY in the supernatant was measured by ELISA kit.

In another assay the test system is Clostridium difficile. Nature of the assay: Clostridium difficile proliferation in gut microbiota (PCR). Type of assay: cell-based. The conditions noted are these: human feces culture; lactic acid bacteria 1×10^6 CFU/mL; anaerobic 24 hr. The procedure, abridged: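 Human fecal supernatant, diluted 10,000-fold in GAM, co-cultured anaerobically 24 h with lactic acid bacteria (1×10^6 CFU/mL). C. difficile quantified by PCR on pellet DNA (95 °C 30 s; 42 cycles 95 °C 5 s/72 °C 30 s); supernatant LPS measured by ELISA.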

The next assay relates to gut microbiota. Kind of assay: LPS production in gut microbiota (ELISA). The conditions noted are these: human feces culture; lactic acid bacteria 1×10^6 CFU/mL; anaerobic 24 hr. The format is cell-based. How it is done:
Fresh human feces were suspended in anaerobic medium (GAM, Nissui Pharmaceutical Co., Ltd., Japan) and allowed to stand for 10 min. The supernatant was diluted with 10,000-fold anaerobic medium, 0.05 mL of the dilution was transplanted into 5 mL of freshly made anaerobic medium, and lactic acid bacteria (1×10^6 CFU/mL) were implanted and incubated anaerobically for 24 hr.

As for `O=C(O)c1cc(/N=N/c2ccc(S(=O)(=O)Nc3ccccn3)cc2)ccc1O` [Sulfasalazine, sulfasalazine, reference compound], in assay [1], the “Colon (cm)” value is 5.0 cm, the IFN-γ/IL-10 is given as 2.85, the IL-10 was 15.91 pg/mg and the “Interferon (IFN)-γ” value was 45.4 pg/mg. In assay [1], this compound gave an MPO activity of 4.75 μUnit/mg, a TNF-α of 20.1 pg/mg and a TNF-α/IL-10 of 1.26. Also, the Tbet/Foxp3 in [2] (spleen qPCR) is listed as 1.78. In assay [2] (spleen), the IL-10 was found to be 9.78 pg/mg, the “Interferon (IFN)-γ” value was determined as 13.55 pg/mg, the “NK cell cytoxicity (%)” value was 7.92% and the “Phagocytosis (%)” value came out at 39.59%. In addition, in assay [2] (spleen), the TNF-α is 4.51 pg/mg and the TNF-α/IL-10 came to 0.13. Besides, in assay [3], the “Exoporation (%) (in NOR task)” value came out at 72.02% and the “Spontaneous alteration (%) (in Y-maze task)” value is reported as 69.21%. Also, in assay [3] (hippocampus), the IFN-γ/IL-10 is 0.60, the IL-10 came out at 45.79 pg/mg, the “Interferon (IFN)-γ” value was determined as 27.35 pg/mg and the TNF-α came to 10.98 pg/mg. Besides, in assay [3] (hippocampus), the TNF-α/IL-10 turned out to be 0.24.

Turning to Lactobacillus sakei NK198, the Antioxidant activity result in [4] is recorded as “++ (strongly (++; >60-90%))”. In addition, the “Macrophage Inhibition of TNF-α expression” value with TNF-α is recorded as “− (not or less than 20% (−; <20%))”. Also, the “Macrophage Induction of IL-10 expression” value in the assay with IL-10 is on record as “− (not or less than 20% (−; <20%))”. Besides, in the assay on BDNF, the “SHSY5Y cell Induction of BDNF expression” value was “− (not or less than 20% (−; <20%))”. The “PC12 cell Induction of NPY expression” value in the assay with Neuropeptide Y (NPY) is “+ (weakly (+; >20-60%))”. In addition, in the assay on Clostridium difficile, the “Gut microbiota Inhibition of difficile bacteria proliferation” value is “− (not or less than 20% (−; <20%))”. In the assay with gut microbiota, the “Gut microbiota Inhibition of LPS production” value is “++ (strongly (++; >60-90%))”.

For Lactococcus lactis NK208, in assay [4], the Antioxidant activity entry is reported as “− (not or less than 20% (−; <20%))”. Moreover, in the assay with TNF-α, the “Macrophage Inhibition of TNF-α expression” value is “− (not or less than 20% (−; <20%))”. For the same compound, the “Macrophage Induction of IL-10 expression” value in the assay on IL-10 is listed as “− (not or less than 20% (−; <20%))”. In addition, the “SHSY5Y cell Induction of BDNF expression” value in the assay with BDNF is “+ (weakly (+; >20-60%))”. In the assay with Neuropeptide Y (NPY), the “PC12 cell Induction of NPY expression” value is “+ (weakly (+; >20-60%))”. In addition, in the assay on Clostridium difficile, the “Gut microbiota Inhibition of difficile bacteria proliferation” value was “+ (weakly (+; >20-60%))”. In the assay with gut microbiota, the “Gut microbiota Inhibition of LPS production” value is recorded as “+ (weakly (+; >20-60%))”.

The values are drawn from patent US20250009819A1, “NOVEL PROBIOTICS AND USE THEREOF” (PBLBIOLAB CO., LTD., priority 2021, published 2025).
